Reference: ChEMBL document CHEMBL1201862, “PubChem BioAssay data set” (2004)
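All cell lines were grown in 96-well plates and treated with compound for 48 hours. Here, GI50 denotes the concentration required for 50% inhibition of growth.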 Activity calls are given as the source filed them. Rule as the data show it: active = GI50 up to about 1.1 µM and inactive = higher.

How the values were obtained:
Assay in all cases: NCI tumour cell line growth inhibition, 48 h
786-0 = system: 786-0
A498 = system: A498
A549 = system: A549
ACHN = system: ACHN
CAKI-1 = system: CAKI-1
CCRF-CEM = system: CCRF-CEM
COLO 205 = system: COLO 205
DLD-1 = system: DLD-1
DMS-114 = system: DMS-114
DMS-273 = system: DMS-273
EKVX = system: EKVX
HCC 2998 = system: HCC 2998
HCT-116 = system: HCT-116
HCT-15 = system: HCT-15
HL-60 = system: HL-60
HOP-18 = system: HOP-18
HOP-62 = system: HOP-62
HT-29 = system: HT-29
IGROV-1 = system: IGROV-1
K562 = system: K562
KM-20L2 = system: KM-20L2
KM12 = system: KM12
LOX IMVI = system: LOX IMVI
LXFL 529 = system: LXFL 529
M14 = system: M14
M19-MEL = system: M19-MEL
MOLT-4 = system: MOLT-4
Malme-3M = system: Malme-3M
NCI-H226 = system: NCI-H226
NCI-H23 = system: NCI-H23
NCI-H460 = system: NCI-H460
NCI-H522 = system: NCI-H522
OVCAR-3 = system: OVCAR-3
OVCAR-4 = system: OVCAR-4
OVCAR-5 = system: OVCAR-5
OVCAR-8 = system: OVCAR-8
RPMI-8226 = system: RPMI-8226
RXF 393 = system: RXF 393
RXF 631 = system: RXF 631
SF-268 = system: SF-268
SF-295 = system: SF-295
SF-539 = system: SF-539
SK-MEL-28 = system: SK-MEL-28
SK-MEL-2 = system: SK-MEL-2
SK-MEL-5 = system: SK-MEL-5
SK-OV-3 = system: SK-OV-3
SN12C = system: SN12C
SNB-19 = system: SNB-19
SNB-75 = system: SNB-75
SNB-78 = system: SNB-78
SR = system: SR
SW-620 = system: SW-620
TK-10 = system: TK-10
U-251 = system: U-251
UACC-257 = system: UACC-257
UACC-62 = system: UACC-62
UO-31 = system: UO-31
XF498 = system: XF498
HOP-92 = system: HOP-92

In the case of `Cc1c(Cl)ccc2c1NC(=O)C2(O)C(C(=O)c1ccccc1)c1ccccc1` (stereo not given), the GI50 (786-0) was 32.4 µM (inactive), the GI50 (A498) was 24 µM (inactive) and the GI50 (A549) was 98.2 µM (inactive). For the same compound, the GI50 (ACHN) was 72.4 µM (inactive), the GI50 (CAKI-1) was 58.3 µM (inactive) and the GI50 (CCRF-CEM) was 14.7 µM (inactive). The GI50 (COLO 205) was > 100 µM (inactive), the GI50 (DLD-1) was 83.9 µM (inactive) and the GI50 (DMS-114) was 21.9 µM (inactive). For the same compound, the GI50 (DMS-273) was 51.5 µM (inactive), the GI50 (EKVX) was 43.3 µM (inactive) and the GI50 (HCC 2998) was 97.9 µM (inactive). For the same compound, the GI50 (HCT-116) was 75.9 µM (inactive), the GI50 (HCT-15) was 45.7 µM and the GI50 (HL-60) was 13.2 µM (inactive). The GI50 (HOP-18) was 52.4 µM (inactive), the GI50 (HOP-62) was > 100 µM (inactive) and the GI50 (HT-29) was 29.9 µM (inactive). The GI50 (IGROV-1) was > 100 µM (inactive), the GI50 (K562) was 31.1 µM (inactive) and the GI50 (KM-20L2) was 46 µM (inactive). The GI50 (KM12) was 55.3 µM (inactive), the GI50 (LOX IMVI) was 44.2 µM (inactive) and the GI50 (LXFL 529) was 57.3 µM (inactive). For the same compound, the GI50 (M14) was > 100 µM (inactive), the GI50 (M19-MEL) was 14.7 µM (inactive) and the GI50 (MOLT-4) was 22.9 µM (inactive). The GI50 (Malme-3M) was 93.3 µM (inactive), the GI50 (NCI-H226) was 88.5 µM (inactive) and the GI50 (NCI-H23) was 4.98 µM (inactive). The GI50 (NCI-H460) was 64.9 µM (inactive), the GI50 (NCI-H522) was 27.7 µM (inactive) and the GI50 (OVCAR-3) was > 10 µM (inactive). The GI50 (OVCAR-4) was 10.7 µM (inactive), the GI50 (OVCAR-5) was 32.7 µM (inactive) and the GI50 (OVCAR-8) was 69.7 µM (inactive). For the same compound, the GI50 (RPMI-8226) was 25.9 µM (inactive), the GI50 (RXF 393) was 27.5 µM (inactive) and the GI50 (RXF 631) was 62.2 µM (inactive). For the same compound, the GI50 (SF-268) was 62.7 µM (inactive), the GI50 (SF-295) was 36.5 µM (inactive) and the GI50 (SF-539) was 74.6 µM (inactive). The GI50 (SK-MEL-28) was 94.6 µM (inactive), the GI50 (SK-MEL-2) was > 100 µM (inactive) and the GI50 (SK-MEL-5) was 23.3 µM (inactive). The GI50 (SK-OV-3) was > 100 µM (inactive), the GI50 (SN12C) was 76.6 µM (inactive) and the GI50 (SNB-19) was 62.8 µM (inactive). The GI50 (SNB-75) was 46.7 µM (inactive), the GI50 (SNB-78) was > 100 µM (inactive) and the GI50 (SR) was 27.3 µM (inactive). The GI50 (SW-620) was 42.4 µM (inactive), the GI50 (TK-10) was 52 µM (inactive) and the GI50 (U-251) was 34.8 µM (inactive). The GI50 (UACC-257) was 28.7 µM (inactive), the GI50 (UACC-62) was 19.5 µM (inactive) and the GI50 (UO-31) was 76.6 µM (inactive). For the same compound, the GI50 (XF498) was 32.7 µM (inactive).

`N#CNc1nc(C(=O)Nc2ccc(Cl)cc2)cc(-c2ccccc2)n1` was tested, and the GI50 (786-0) was > 100 µM (inactive), the GI50 (A498) was > 100 µM (inactive) and the GI50 (A549) was > 100 µM (inactive). The GI50 (ACHN) was > 100 µM (inactive), the GI50 (CAKI-1) was > 100 µM (inactive) and the GI50 (DLD-1) was > 100 µM (inactive). For the same compound, the GI50 (DMS-114) was > 100 µM (inactive), the GI50 (DMS-273) was > 100 µM (inactive) and the GI50 (EKVX) was > 100 µM (inactive). For the same compound, the GI50 (HCC 2998) was > 100 µM (inactive), the GI50 (HCT-116) was > 100 µM (inactive) and the GI50 (HCT-15) was over 100 µM. The GI50 (HL-60) was > 100 µM (inactive), the GI50 (HOP-18) was > 100 µM (inactive) and the GI50 (HOP-62) was > 100 µM (inactive). For the same compound, the GI50 (HOP-92) was > 100 µM (inactive), the GI50 (HT-29) was > 100 µM (inactive) and the GI50 (IGROV-1) was > 100 µM (inactive). The GI50 (K562) was > 100 µM (inactive), the GI50 (KM-20L2) was > 100 µM (inactive) and the GI50 (KM12) was > 100 µM (inactive). For the same compound, the GI50 (LXFL 529) was > 100 µM (inactive), the GI50 (M14) was > 100 µM (inactive) and the GI50 (M19-MEL) was > 100 µM (inactive). For the same compound, the GI50 (MOLT-4) was > 100 µM (inactive), the GI50 (Malme-3M) was > 100 µM (inactive) and the GI50 (NCI-H226) was > 100 µM (inactive). For the same compound, the GI50 (NCI-H23) was > 100 µM (inactive), the GI50 (OVCAR-3) was > 100 µM (inactive) and the GI50 (OVCAR-4) was > 100 µM (inactive). For the same compound, the GI50 (OVCAR-5) was > 100 µM (inactive), the GI50 (OVCAR-8) was > 100 µM (inactive) and the GI50 (RPMI-8226) was > 100 µM (inactive). The GI50 (RXF 393) was > 100 µM (inactive), the GI50 (RXF 631) was > 100 µM (inactive) and the GI50 (SF-268) was > 100 µM (inactive). For the same compound, the GI50 (SF-295) was > 100 µM (inactive), the GI50 (SF-539) was > 100 µM (inactive) and the GI50 (SK-MEL-28) was > 100 µM (inactive). For the same compound, the GI50 (SK-MEL-2) was > 100 µM (inactive), the GI50 (SK-MEL-5) was > 100 µM (inactive) and the GI50 (SN12C) was > 100 µM (inactive). The GI50 (SNB-19) was > 100 µM (inactive), the GI50 (SNB-75) was > 100 µM (inactive) and the GI50 (SNB-78) was > 100 µM (inactive). For the same compound, the GI50 (SW-620) was > 100 µM (inactive), the GI50 (U-251) was > 100 µM (inactive) and the GI50 (UACC-257) was > 100 µM (inactive). The GI50 (UACC-62) was > 100 µM (inactive), the GI50 (UO-31) was > 100 µM (inactive) and the GI50 (XF498) was > 100 µM (inactive).

For `Nc1ccc2c(c1)C(=O)N(OS(=O)(=O)c1ccccc1)C2=O`, the GI50 (786-0) was > 100 µM (inactive), the GI50 (A498) was > 100 µM (inactive) and the GI50 (A549) was > 100 µM (inactive). For the same compound, the GI50 (ACHN) was > 100 µM (inactive), the GI50 (CAKI-1) was > 100 µM (inactive) and the GI50 (CCRF-CEM) was 76.6 µM (inactive). For the same compound, the GI50 (COLO 205) was 56.4 µM (inactive), the GI50 (DLD-1) was 52.4 µM (inactive) and the GI50 (DMS-114) was > 100 µM (inactive). The GI50 (DMS-273) was > 100 µM (inactive), the GI50 (EKVX) was > 100 µM (inactive) and the GI50 (HCC 2998) was > 100 µM (inactive). The GI50 (HCT-116) was > 100 µM (inactive), the GI50 (HCT-15) was over 100 µM and the GI50 (HL-60) was 46.5 µM (inactive). For the same compound, the GI50 (HOP-18) was > 100 µM (inactive), the GI50 (HOP-62) was > 100 µM (inactive) and the GI50 (HOP-92) was > 100 µM (inactive). The GI50 (HT-29) was > 100 µM (inactive), the GI50 (IGROV-1) was > 100 µM (inactive) and the GI50 (K562) was 86.1 µM (inactive). For the same compound, the GI50 (KM-20L2) was > 100 µM (inactive), the GI50 (KM12) was > 100 µM (inactive) and the GI50 (LOX IMVI) was 35.5 µM (inactive). The GI50 (LXFL 529) was 82 µM (inactive), the GI50 (M14) was > 100 µM (inactive) and the GI50 (M19-MEL) was > 100 µM (inactive). For the same compound, the GI50 (Malme-3M) was 94.4 µM (inactive), the GI50 (NCI-H226) was > 100 µM (inactive) and the GI50 (NCI-H23) was > 100 µM (inactive). For the same compound, the GI50 (NCI-H460) was > 100 µM (inactive), the GI50 (NCI-H522) was 21.5 µM (inactive) and the GI50 (OVCAR-3) was > 100 µM (inactive). The GI50 (OVCAR-4) was > 100 µM (inactive), the GI50 (OVCAR-5) was > 100 µM (inactive) and the GI50 (OVCAR-8) was 56.9 µM (inactive). For the same compound, the GI50 (RXF 393) was > 100 µM (inactive), the GI50 (RXF 631) was > 100 µM (inactive) and the GI50 (SF-268) was > 100 µM (inactive). For the same compound, the GI50 (SF-295) was > 100 µM (inactive), the GI50 (SF-539) was > 100 µM (inactive) and the GI50 (SK-MEL-28) was > 100 µM (inactive). The GI50 (SK-MEL-2) was > 100 µM (inactive), the GI50 (SK-MEL-5) was > 100 µM (inactive) and the GI50 (SK-OV-3) was > 100 µM (inactive). For the same compound, the GI50 (SN12C) was > 100 µM (inactive), the GI50 (SNB-19) was > 100 µM (inactive) and the GI50 (SNB-75) was > 100 µM (inactive). For the same compound, the GI50 (SNB-78) was > 100 µM (inactive), the GI50 (SW-620) was 49.8 µM (inactive) and the GI50 (TK-10) was > 100 µM (inactive). The GI50 (U-251) was > 100 µM (inactive), the GI50 (UACC-257) was > 100 µM (inactive) and the GI50 (UACC-62) was > 100 µM (inactive). For the same compound, the GI50 (UO-31) was > 100 µM (inactive) and the GI50 (XF498) was > 100 µM (inactive).
